Patent US8895605B2, “Pyrrolidine-substituted flavones as radio-sensitizers for use in the treatment of cancer” (Piramal Enterprises Limited, priority 2009, dated 2014)

Test system: FaDu cell line
Test: In-vitro clonogenic assay (Compound A alone and with radiation)
Format: cell-based, human
Conditions: for Number of colonies 72 h after Compound A treatment / Number of colonies 96 h after Compound A treatment: 1500 cells/plate; for Number of colonies 72 h after Compound A treatment: control 138 colonies; for Number of colonies 96 h after Compound A treatment: control 185 colonies
Experimental: The assay has been carried out according to the method described in Radiotherapy and Oncology, 2004, 71, 213-221; the disclosure of which is incorporated by reference for the teaching of the assay. The Fa-Du cells from exponential phase cultures were harvested by trypsinization, counted and plated at a cell density of 1500 cells/well in six-well plate and four identical groups were made. First group served as control that was untreated. Different wells of the second and third group, 24 h after seeding were irradiated at room temperature at dose of 2, 4, 6, 8 and 10 Gy respectively. The third group was further treated, 24 h after irradiation (i.e. on the third day of the experiment) with IC50 concentration of Compound A. The fourth group was treated on the third day of the experiment with IC50 concentration of Compound A alone. After completion of 72 h and 96 h respectively, the medium was changed for all the wells and the plates incubated for a total period of 12-14 days from the first day of the experiment (i.e. the cell seeding day) to allow sufficient time for the cells to form colonies of at least 50 cells. The medium was aspirated and colonies were fixed with methanol and acetic acid mixture in the proportion of 2:1. The fixation procedure was repeated after rinsing with water. The plates were dried and colonies stained with 0.1% crystal violet for 5 min. The wells were finally rinsed with water and dried. […] FIG. 3 and FIG. 4 show the visual enhancement in the radiation response by 1 μM dose of Compound A, in FaDu cell line (Seeding density: 1500 cells/plate).

[1] = 1 μM Compound A (IC50) alone, no radiation
[2] = 2 Gy radiation, then 1 μM Compound A 24 h after radiation
[3] = 4 Gy radiation, then 1 μM Compound A 24 h after radiation
[4] = 6 Gy radiation, then 1 μM Compound A 24 h after radiation
[5] = 8 Gy radiation, then 1 μM Compound A 24 h after radiation
[6] = 10 Gy radiation, then 1 μM Compound A 24 h after radiation

Which “Number of colonies 72 h after Compound A treatment” value (“Number of colonies 72 h” for short) [1] does the source give for `CN1CC[C@@H](c2c(O)cc(O)c3c(=O)cc(-c4ccccc4Cl)oc23)[C@@H]1CO.Cl` [Compound A, (+)-trans-2-(2-Chlorophenyl)-5,7-dihydroxy-8-(2-hydroxymethyl-1-methyl-pyrrolidin-3-yl)-chromen-4-one hydrochloride] here?
The value was 38.

And the “Number of colonies 96 h after Compound A treatment” value (from here on “Number of colonies 96 h”) [1]?
Its value is 36.

What about the “Radiation response in clonogenic assay” value (1 μM Compound A for both 72 h and 96 h, at both 4 and 6 Gy, 1500 cells/well) of the same compound?
Its value is “enhanced the radiation response”.

And the “Number of colonies 72 h” value [2]?
The value was 45.

And the “Number of colonies 96 h” value [2]?
Its value is 40.

What about the “Number of colonies 72 h” value [3] of the same compound?
Its value is 18.

What about the “Number of colonies 96 h” value [3] of the same compound?
The value was 17.

And the “Number of colonies 72 h” value [4]?
Its value is 7.

What about the “Number of colonies 96 h” value [4] of the same compound?
Its value is 6.

What about the “Number of colonies 72 h” value [5] of the same compound?
The value was 0.

And the “Number of colonies 96 h” value [5]?
Its value is 2.

And the “Number of colonies 72 h” value [6]?
Its value is 0.

And the “Number of colonies 96 h” value [6]?
Its value is 0.
